Assay results reported in patent US4607010A, “Analytical process and means for measuring protease inhibitor capacity of serum” (priority 1984, dated 1986).

Assays:
Chymotrypsin = assay: Fixed time active-site titration of chymotrypsin with DPCF (fluoride electrode); type: biochemical; conditions: for % Active: active concentration as percentage of total mass; for F^-: pH 5.5, two hours, room temperature, mean of duplicates, blank 10.60
Method: (§1) Diphenylcarbamyl fluoride is a specific inactivator for both α-chymotrypsin and trypsin. […] The fixed time pseudoequilibrium can nevertheless be used for the assay of both enzymes since the number of moles of F^- released is stoichiometrically related to the active concentration of either two enzymes.
The reagent solutions were the same as described in Example 1. The assay procedure was however modified in the following manner. Into the plastic beaker, 4.8 ml of assay buffer, […] of either enzyme solution and 100 μl of DPFC solution were added. A blank was prepared in a similar manner by substituting 100 μl of a 2 mM HCl for the enzyme solution. All solutions were left at room temperature for two hours. Following that the F^- concentration was then measured by the fluoride electrode. […].
The difference in the relative-rates of F^- generation with chymotrypsin solution and chymotrypsin solution with serum was used to estimate serum protease inhibitor capacity. The assay buffer and DPCF solution were prepared as described in Example 5. Chymotrypsin solution 2.0 μM corresponding to 1.46 μM active mass was prepared by dilution of stock chymotrypsin solution as described in Example 1.

Trypsin = assay: Fixed time active-site titration of trypsin with DPCF (fluoride electrode); type: biochemical; conditions: for % Active: active concentration as percentage of total mass; for F^-: pH 5.5, two hours, room temperature, mean of duplicates, blank 10.60
Method: as §1
The reagent solutions were the same as described in Example 1. The assay procedure was however modified in the following manner. Into the plastic beaker, 4.8 ml of assay buffer, […] of either enzyme solution and 100 μl of DPFC solution were added. A blank was prepared in a similar manner by substituting 100 μl of a 2 mM HCl for the enzyme solution. All solutions were left at room temperature for two hours. Following that the F^- concentration was then measured by the fluoride electrode. […]

[1] = enzyme concentration 2 μM (mass)
[2] = enzyme concentration 5 μM (mass)
[3] = enzyme concentration 10 μM (mass)
[4] = mean over 2, 5 and 10 μM (mass)

Substance	active concentration (Chymotrypsin; chymotrypsin solution 2.0 μM (mass))	% Active (Chymotrypsin; [1])	F^- (Chymotrypsin; [1])	% Active (Chymotrypsin; [2])	F^- (Chymotrypsin; [2])	% Active (Chymotrypsin; [3])	F^- (Chymotrypsin; [3])	% Active Mean ± Stand. Dev. (Chymotrypsin; [4])	% Active (Trypsin; [1])	F^- (Trypsin; [1])	% Active (Trypsin; [2])	F^- (Trypsin; [2])	% Active (Trypsin; [3])	F^- (Trypsin; [3])	% Active Mean ± Stand. Dev. (Trypsin; [4])
Chymotrypsin	1.46 µM	80.0%	12.20 µM	72.2%	14.21 µM	70.4%	17.64 µM	74.2 ± 4.2%							
Trypsin									77.5%	12.12 µM	69.4%	14.00 µM	65.7%	17.12 µM	70.9 ± 4.9%
